From ChEMBL document CHEMBL5346977, “Discovery of Novel d-(+)-Biotin-Conjugated Resorcinol Dibenzyl Ether-Based PD-L1 Inhibitors for Targeted Cancer Immunotherapy” (J Med Chem, 2023)
The source made the active and inactive calls. The calls are words filed in the database; no cut-off is given here.

Tests used:
B16-F10 [1] = assay: Antitumor immunity against mouse B16-F10 cells implanted in allogenic BALB/c mouse assessed as increase in CD3+ CD8+ T cells percentage at 50 mg/kg, ip by flow cytometric analysis; type: functional, organism-based
[2] = Drug concentration in brain of C57BL/6 mouse implanted with mouse B16-F10 cells at 50 mg/kg, ip measured after 1 hrs by UPLC-MS/MS analysis; type: ADME, organism-based; conditions: read-out: Ct
[3] = Drug concentration in spleen of C57BL/6 mouse implanted with mouse B16-F10 cells at 50 mg/kg, ip measured after 0.5 hrs by UPLC-MS/MS analysis; type: ADME, organism-based; conditions: read-out: Ct
[4] = MRT (0 to t) in Sprague-Dawley rat at 1 mg/kg, iv administered as single dose and measured after 48 hrs by HPLC-MS/MS analysis; type: ADME, organism-based; conditions: in vivo
B16-F10 [5] = assay: Antitumor activity against mouse B16-F10 cells implanted in allogenic BALB/c mouse assessed as increase in CXCL10 mRNA level in tumor at 50 mg/kg, ip by qPCR analysis; type: functional, organism-based
[6] = Drug concentration in lung of C57BL/6 mouse implanted with mouse B16-F10 cells at 50 mg/kg, ip measured after 2 hrs by UPLC-MS/MS analysis; type: ADME, organism-based; conditions: read-out: Ct
[7] = biological target: Programmed cell death 1 ligand 1 (Homo sapiens, UniProt Q9NZQ7); assay: Binding affinity to human PD-L1 assessed as dissociation constant by SPR analysis
[8] = Drug concentration in liver of C57BL/6 mouse implanted with mouse B16-F10 cells at 50 mg/kg, ip measured after 2 hrs by UPLC-MS/MS analysis; type: ADME, organism-based; conditions: read-out: Ct
[9] = Drug concentration in liver of C57BL/6 mouse implanted with mouse B16-F10 cells at 50 mg/kg, ip measured after 0.5 hrs by UPLC-MS/MS analysis; type: ADME, organism-based; conditions: read-out: Ct
[10] = AUC (0 to infinity) in Sprague-Dawley rat at 20 mg/kg, po measured after 48 hrs by HPLC-MS/MS analysis; type: ADME, organism-based; set-up: dose 20 mg/kg, time 48 hrs, route po; conditions: in vivo
[11] = Apparent volume of distribution in C57BL/6 mouse at 50 mg/kg, ip measured after 4 hrs by HPLC-MS/MS analysis; type: ADME, organism-based; conditions: in vivo
[12] = Initial drug concentration in C57BL/6 mouse at 50 mg/kg, ip measured after 4 hrs by HPLC-MS/MS analysis; type: ADME, organism-based; conditions: in vivo

Programmed cell death 1 ligand 1, sequence (Q9NZQ7 whole entry): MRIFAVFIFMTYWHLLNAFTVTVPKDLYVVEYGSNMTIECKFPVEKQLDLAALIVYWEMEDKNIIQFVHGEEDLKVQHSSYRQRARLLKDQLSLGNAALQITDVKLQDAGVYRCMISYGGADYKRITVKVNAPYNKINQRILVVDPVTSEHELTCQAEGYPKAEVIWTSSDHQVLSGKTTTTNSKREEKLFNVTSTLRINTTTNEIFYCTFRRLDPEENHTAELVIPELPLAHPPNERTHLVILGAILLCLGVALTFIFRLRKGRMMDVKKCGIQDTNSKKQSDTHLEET

Cc1c(COc2cc(OCc3cccc(C#N)c3)c(CN3CCCCC3C(=O)NCCNC(=O)CCCC[C@@H]3SC[C@@H]4NC(=O)N[C@@H]43)cc2Cl)cccc1-c1ccccc1 (some centres not stated)
Activity (B16-F10 [1]): Active | concentration at 1 h [2]: 3 ng/mL | concentration at 0.5 h [3]: 4570 ng/mL | MRT last at 48 h [4]: 11.6 h | Activity (B16-F10 [5]): Active | concentration at 2 h [6]: 94.9 ng/mL | Kd [7]: 43.7 nM | concentration at 2 h [8]: 1670 ng/mL | concentration at 0.5 h [9]: 1970 ng/mL | AUC [10]: 1170 ng·h/mL | Vz [11]: 39.163 L/kg | C0 [12]: 570.948 ng/mL
